Data: publication PMC6199744, “Development of Chemical Proteomics for the Folateome and Analysis of the Kinetoplastid Folateome” (ACS Infectious Diseases, 2018)
Where two headings read alike, the source gives them in different places.

Tests used:
Format in all cases: binding
[1] = molecular target: T1, HeLa cell extract proteins (Homo sapiens, UniProt P40939)
T1 construct: endogenous in cells; host or cells: HeLa cell extract

[2] = molecular target: T2, HeLa cell extract proteins (Homo sapiens, UniProt P78527)
T2 construct: endogenous in cells; host or cells: HeLa cell extract

[3] = molecular target: T3, HeLa cell extract proteins (Homo sapiens, UniProt P36639)
T3 construct: endogenous in cells; host or cells: HeLa cell extract

[4] = molecular target: T4, HeLa cell extract proteins (Homo sapiens, UniProt Q8TEM1)
T4 construct: endogenous in cells; host or cells: HeLa cell extract
T4 sequence (Q8TEM1 27-1887): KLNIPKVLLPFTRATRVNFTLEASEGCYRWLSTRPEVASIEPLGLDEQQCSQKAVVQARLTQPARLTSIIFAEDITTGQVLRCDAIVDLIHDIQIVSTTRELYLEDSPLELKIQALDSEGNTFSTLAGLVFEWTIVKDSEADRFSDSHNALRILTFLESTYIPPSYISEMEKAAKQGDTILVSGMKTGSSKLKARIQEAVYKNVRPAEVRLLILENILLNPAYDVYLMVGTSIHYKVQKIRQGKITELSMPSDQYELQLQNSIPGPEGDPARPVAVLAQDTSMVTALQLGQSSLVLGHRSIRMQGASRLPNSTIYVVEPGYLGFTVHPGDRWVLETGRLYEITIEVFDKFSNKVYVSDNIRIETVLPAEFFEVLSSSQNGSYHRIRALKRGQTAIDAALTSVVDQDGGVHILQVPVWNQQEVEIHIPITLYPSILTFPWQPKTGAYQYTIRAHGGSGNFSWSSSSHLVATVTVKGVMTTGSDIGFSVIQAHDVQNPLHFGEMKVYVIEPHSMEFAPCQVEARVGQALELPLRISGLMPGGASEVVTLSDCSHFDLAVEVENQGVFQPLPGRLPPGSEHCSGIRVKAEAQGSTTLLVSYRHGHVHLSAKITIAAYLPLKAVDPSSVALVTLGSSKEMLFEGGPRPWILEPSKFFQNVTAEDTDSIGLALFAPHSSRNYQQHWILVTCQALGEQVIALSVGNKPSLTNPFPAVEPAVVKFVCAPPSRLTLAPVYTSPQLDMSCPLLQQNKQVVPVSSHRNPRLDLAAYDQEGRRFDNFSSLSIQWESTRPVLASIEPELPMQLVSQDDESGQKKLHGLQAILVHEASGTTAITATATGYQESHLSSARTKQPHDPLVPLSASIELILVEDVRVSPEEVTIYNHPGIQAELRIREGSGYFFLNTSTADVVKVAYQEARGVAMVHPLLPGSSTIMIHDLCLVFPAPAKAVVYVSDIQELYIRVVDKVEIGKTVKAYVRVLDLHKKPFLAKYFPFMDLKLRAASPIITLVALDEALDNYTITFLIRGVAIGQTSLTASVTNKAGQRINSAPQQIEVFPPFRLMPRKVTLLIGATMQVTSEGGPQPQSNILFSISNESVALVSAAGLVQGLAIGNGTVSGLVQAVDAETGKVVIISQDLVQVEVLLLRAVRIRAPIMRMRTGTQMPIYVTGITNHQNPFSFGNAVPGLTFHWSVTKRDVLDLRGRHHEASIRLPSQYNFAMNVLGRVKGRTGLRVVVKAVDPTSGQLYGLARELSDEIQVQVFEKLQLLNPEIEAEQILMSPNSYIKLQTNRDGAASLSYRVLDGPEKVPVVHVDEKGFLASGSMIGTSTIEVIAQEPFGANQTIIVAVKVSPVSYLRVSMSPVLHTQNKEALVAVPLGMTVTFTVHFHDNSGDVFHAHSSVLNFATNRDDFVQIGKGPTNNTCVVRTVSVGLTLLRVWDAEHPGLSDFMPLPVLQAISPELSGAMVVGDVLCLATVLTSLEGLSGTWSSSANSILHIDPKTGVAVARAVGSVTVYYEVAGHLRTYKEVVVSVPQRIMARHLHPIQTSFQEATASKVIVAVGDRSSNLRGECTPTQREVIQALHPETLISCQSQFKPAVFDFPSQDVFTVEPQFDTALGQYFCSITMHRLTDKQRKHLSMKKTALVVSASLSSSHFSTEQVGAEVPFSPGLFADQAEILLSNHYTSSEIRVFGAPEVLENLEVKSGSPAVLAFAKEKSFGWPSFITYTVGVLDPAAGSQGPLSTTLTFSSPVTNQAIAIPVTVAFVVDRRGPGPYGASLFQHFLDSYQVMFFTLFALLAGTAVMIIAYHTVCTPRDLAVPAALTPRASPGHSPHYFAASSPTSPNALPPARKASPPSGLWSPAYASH

[5] = molecular target: T5, HeLa cell extract proteins (Homo sapiens, UniProt Q96KA5)
T5 construct: endogenous in cells; host or cells: HeLa cell extract
T5 sequence (Q96KA5 1-538): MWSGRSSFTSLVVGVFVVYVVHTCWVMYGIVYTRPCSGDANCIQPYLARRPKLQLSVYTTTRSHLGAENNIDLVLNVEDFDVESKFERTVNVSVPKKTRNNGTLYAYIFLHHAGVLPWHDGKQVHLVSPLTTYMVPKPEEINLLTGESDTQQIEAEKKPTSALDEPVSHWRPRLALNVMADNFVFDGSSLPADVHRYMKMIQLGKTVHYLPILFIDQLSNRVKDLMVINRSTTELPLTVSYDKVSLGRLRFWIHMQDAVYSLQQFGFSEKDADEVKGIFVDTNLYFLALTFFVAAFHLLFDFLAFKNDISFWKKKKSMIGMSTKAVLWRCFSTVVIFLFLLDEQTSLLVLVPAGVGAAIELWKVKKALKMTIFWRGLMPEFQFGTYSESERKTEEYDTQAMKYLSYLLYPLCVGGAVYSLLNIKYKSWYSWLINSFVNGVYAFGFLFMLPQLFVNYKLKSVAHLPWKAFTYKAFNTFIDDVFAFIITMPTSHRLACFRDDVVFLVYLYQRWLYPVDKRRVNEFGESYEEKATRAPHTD

[6] = molecular target: T6, HeLa cell extract proteins (Homo sapiens, UniProt O14818)
T6 construct: endogenous in cells; host or cells: HeLa cell extract
T6 sequence (O14818 1-248): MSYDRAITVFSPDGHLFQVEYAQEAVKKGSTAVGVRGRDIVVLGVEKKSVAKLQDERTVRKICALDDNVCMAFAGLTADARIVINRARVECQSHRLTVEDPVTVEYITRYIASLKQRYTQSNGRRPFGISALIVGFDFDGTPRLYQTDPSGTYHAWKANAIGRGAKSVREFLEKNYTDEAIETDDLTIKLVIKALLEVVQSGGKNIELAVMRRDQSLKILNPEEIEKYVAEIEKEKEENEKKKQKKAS

[7] = molecular target: T7, HeLa cell extract proteins (Homo sapiens, UniProt P14618)
T7 construct: endogenous in cells; host or cells: HeLa cell extract
T7 sequence (P14618 whole entry): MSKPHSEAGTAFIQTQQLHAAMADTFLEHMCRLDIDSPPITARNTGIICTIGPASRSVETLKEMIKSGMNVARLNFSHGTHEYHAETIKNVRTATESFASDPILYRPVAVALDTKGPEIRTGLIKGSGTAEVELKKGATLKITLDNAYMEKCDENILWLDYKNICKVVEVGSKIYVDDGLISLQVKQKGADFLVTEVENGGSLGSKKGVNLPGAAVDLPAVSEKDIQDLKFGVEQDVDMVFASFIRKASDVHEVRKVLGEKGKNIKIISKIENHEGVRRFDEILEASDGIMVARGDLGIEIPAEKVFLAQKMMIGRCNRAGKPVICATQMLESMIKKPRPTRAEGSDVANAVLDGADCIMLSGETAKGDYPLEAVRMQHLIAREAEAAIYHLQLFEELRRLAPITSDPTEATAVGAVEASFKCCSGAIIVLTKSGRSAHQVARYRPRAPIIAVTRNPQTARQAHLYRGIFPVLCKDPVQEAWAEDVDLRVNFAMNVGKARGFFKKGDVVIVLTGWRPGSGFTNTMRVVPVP

[8] = molecular target: T8, HeLa cell extract proteins (Homo sapiens, UniProt Q12931)
T8 construct: endogenous in cells; host or cells: HeLa cell extract
T8 sequence (Q12931 60-704): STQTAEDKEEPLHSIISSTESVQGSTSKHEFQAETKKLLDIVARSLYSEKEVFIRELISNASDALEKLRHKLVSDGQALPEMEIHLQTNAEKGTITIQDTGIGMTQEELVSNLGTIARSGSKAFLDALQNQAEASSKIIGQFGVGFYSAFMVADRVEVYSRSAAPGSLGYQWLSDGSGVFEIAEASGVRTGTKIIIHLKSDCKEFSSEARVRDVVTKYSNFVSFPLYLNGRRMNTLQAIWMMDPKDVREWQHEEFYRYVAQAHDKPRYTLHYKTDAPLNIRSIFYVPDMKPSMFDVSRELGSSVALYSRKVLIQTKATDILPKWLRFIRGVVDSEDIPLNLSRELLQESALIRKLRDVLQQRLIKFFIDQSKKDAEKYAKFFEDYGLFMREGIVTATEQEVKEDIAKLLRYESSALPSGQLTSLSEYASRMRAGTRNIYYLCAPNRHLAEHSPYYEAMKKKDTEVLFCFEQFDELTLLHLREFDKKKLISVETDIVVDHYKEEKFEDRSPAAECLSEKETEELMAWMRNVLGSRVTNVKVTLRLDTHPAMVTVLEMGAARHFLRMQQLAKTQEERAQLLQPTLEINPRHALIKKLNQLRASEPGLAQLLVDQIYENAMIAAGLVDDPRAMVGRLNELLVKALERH

[9] = molecular target: T9, HeLa cell extract proteins (Homo sapiens, UniProt P40926)
T9 construct: endogenous in cells; host or cells: HeLa cell extract
T9 sequence (P40926 25-338): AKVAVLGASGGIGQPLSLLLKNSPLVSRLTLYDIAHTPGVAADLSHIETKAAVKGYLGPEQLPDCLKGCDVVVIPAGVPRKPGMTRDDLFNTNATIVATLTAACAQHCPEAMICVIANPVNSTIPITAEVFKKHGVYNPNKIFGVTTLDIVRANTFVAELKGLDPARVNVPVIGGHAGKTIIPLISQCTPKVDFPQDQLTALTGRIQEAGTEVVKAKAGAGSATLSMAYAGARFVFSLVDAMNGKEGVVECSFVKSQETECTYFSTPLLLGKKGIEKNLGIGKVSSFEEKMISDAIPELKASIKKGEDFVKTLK

[10] = molecular target: T10, HeLa cell extract proteins (Homo sapiens, UniProt O00299)
T10 construct: endogenous in cells; host or cells: HeLa cell extract

[11] = molecular target: T11, HeLa cell extract proteins (Homo sapiens, UniProt P36542)
T11 construct: endogenous in cells; host or cells: HeLa cell extract
T11 sequence (P36542 26-298): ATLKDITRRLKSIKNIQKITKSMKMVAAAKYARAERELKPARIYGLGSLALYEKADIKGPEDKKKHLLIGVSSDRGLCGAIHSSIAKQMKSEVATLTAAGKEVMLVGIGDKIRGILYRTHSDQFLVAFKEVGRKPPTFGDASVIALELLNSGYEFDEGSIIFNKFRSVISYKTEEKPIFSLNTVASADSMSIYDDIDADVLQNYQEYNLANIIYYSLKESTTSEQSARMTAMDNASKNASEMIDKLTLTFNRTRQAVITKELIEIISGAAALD

[12] = molecular target: T12, HeLa cell extract proteins (Homo sapiens, UniProt P08865)
T12 construct: endogenous in cells; host or cells: HeLa cell extract

[13] = HeLa, protein PRKDC (ISOFORM 1 OF DNA-DEPENDENT PROTEIN KINASE CATALYTIC SUBUNIT)
[14] = HeLa, protein PKM2 (CDNA FLJ56065, HIGHLY SIMILAR TO PYRUVATE KINASE ISOZYME M1.)

T1 sequence (P40939 37-763): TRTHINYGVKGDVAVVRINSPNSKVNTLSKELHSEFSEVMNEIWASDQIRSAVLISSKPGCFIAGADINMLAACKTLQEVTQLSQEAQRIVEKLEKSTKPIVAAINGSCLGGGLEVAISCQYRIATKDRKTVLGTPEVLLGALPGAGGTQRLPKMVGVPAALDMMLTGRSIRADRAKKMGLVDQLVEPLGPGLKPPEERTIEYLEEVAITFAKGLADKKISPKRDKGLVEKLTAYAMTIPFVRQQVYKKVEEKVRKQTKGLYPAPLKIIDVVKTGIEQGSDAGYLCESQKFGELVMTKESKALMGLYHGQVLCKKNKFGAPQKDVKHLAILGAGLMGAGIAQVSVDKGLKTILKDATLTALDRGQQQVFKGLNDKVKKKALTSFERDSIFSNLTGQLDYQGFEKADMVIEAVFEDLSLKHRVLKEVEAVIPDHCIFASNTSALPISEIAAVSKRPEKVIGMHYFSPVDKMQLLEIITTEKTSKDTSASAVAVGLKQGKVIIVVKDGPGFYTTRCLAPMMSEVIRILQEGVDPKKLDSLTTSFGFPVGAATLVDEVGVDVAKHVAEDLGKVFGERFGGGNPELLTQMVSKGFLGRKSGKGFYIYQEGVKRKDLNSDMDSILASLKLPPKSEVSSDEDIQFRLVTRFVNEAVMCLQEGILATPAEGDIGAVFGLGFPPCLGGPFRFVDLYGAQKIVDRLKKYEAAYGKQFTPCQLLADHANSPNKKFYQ

| Structure (SMILES) | fold changes relative to vehicle control ([1]; HeLa, protein HADHA) | fold changes relative to vehicle control [2, 13] | fold changes relative to vehicle control ([3]; protein NUDT1, HeLa) | fold changes relative to vehicle control ([4]; HeLa, captured protein NUP210) | fold changes relative to vehicle control ([5]; protein CLPTM1L, HeLa) | fold changes relative to vehicle control ([6]; HeLa, captured protein PSMA7) | fold changes relative to vehicle control ([7]; HeLa, protein PKM2) | fold changes relative to vehicle control ([8]; protein TRAP1, HeLa) | fold changes relative to vehicle control ([9]; HeLa, protein MDH2) | fold changes relative to vehicle control ([10]; HeLa, protein CLIC1) | fold changes relative to vehicle control ([11]; HeLa, captured protein ATP5C1) | fold changes relative to vehicle control ([12]; HeLa, protein RPSA) | fold changes relative to vehicle control ([1]; protein HADHA, HeLa) | fold changes relative to vehicle control ([2]; HeLa, protein PRKDC) | fold changes relative to vehicle control ([3]; captured protein NUDT1, HeLa) | fold changes relative to vehicle control ([4]; captured protein NUP210, HeLa) | fold changes relative to vehicle control ([5]; captured protein CLPTM1L, HeLa) | fold changes relative to vehicle control ([6]; protein PSMA7, HeLa) | fold changes relative to vehicle control [7, 14] [fold] | fold changes relative to vehicle control ([9]; protein MDH2, HeLa) | further results |
| --- | --- | --- | --- | --- | --- | --- | --- | --- | --- | --- | --- | --- | --- | --- | --- | --- | --- | --- | --- | --- | --- |
| Nc1nc2c(c(=O)[nH]1)N(C=O)C(CNc1ccc(C(=O)N[C@@H](CCC(=O)O)C(=O)O)cc1)CN2 (stereo partly drawn) [LEU, leucovorin] | 0.9 | 1.05 | 1.19 | 0.97 | 0.77 | 1.08 | 1.03 | 0.95 | 1.06 | 1.09 | 0.99 | 0.87 |  |  |  |  |  |  |  |  |  |
| NCCCNc1ccc(C(=O)NC(CCC(=O)O)C(=O)O)cc1 (stereo not drawn) [compound 7] | 0.99 | 1.16 | 1.2 | 1.05 | 0.9 | 0.93 | 0.94 | 1.01 | 0.96 | 0.99 | 0.99 | 0.84 |  |  |  |  |  |  |  |  |  |
| CCCCCCOc1cccc(Cc2cnc(N)nc2N)c1 [compound 2] |  |  |  |  |  |  |  | 1.77 |  |  |  |  | 1.45 | 0.89 | 0.11 | 0.98 | 1.05 | 1.3 | 2.57 | 1.97 | fold changes relative to vehicle control ([10]; protein CLIC1, HeLa): 2.13; fold changes relative to vehicle control ([11]; HeLa, protein ATP5C1): 0.9; fold changes relative to vehicle control ([12]; captured protein RPSA, HeLa): 1.11 |
| CCCCCCOc1ccc(Cc2cnc(N)nc2N)cc1 [compound 1] |  |  |  |  |  |  |  | 1.27 |  |  |  |  | 1 | 1.01 | 1.02 | 0.74 | 0.84 | 1.13 | 1.45 | 1.26 | fold changes relative to vehicle control ([10]; protein CLIC1, HeLa): 1.21; fold changes relative to vehicle control ([11]; HeLa, protein ATP5C1): 1.05; fold changes relative to vehicle control ([12]; captured protein RPSA, HeLa): 0.97 |
| Nc1nc2cccc(-c3ccccc3)c2n1Cc1ccc(Cl)c(Cl)c1 [compound 3] |  |  |  |  |  |  |  | 1.06 |  |  |  |  | 1.07 | 1.2 | 0.62 | 0.86 | 1.14 | 1.07 | 0.99 | 0.92 | fold changes relative to vehicle control ([10]; protein CLIC1, HeLa): 0.87; fold changes relative to vehicle control ([11]; HeLa, protein ATP5C1): 0.89; fold changes relative to vehicle control ([12]; captured protein RPSA, HeLa): 1.09 |
| NCCOCCOCC(=O)Nc1nc2ncc(CNc3ccc(C(=O)NC(CCC(=O)O)C(=O)O)cc3)nc2c(=O)[nH]1 (stereo not drawn) [compound 6] | 1.05 | 1.17 | 1.16 | 1.07 | 1.01 | 1.02 | 1.29 | 1.2 | 1.34 | 1.44 | 0.97 | 0.97 |  |  |  |  |  |  |  |  |  |
| Nc1nc2[nH]cc(CCc3ccc(C(=O)N[C@@H](CCC(=O)O)C(=O)O)cc3)c2c(=O)[nH]1 [PTX, pemetrexed] |  |  |  |  |  |  |  |  |  |  |  |  |  |  |  |  |  |  |  |  | fold changes relative to vehicle control [1]: 0.89; fold changes relative to vehicle control [2]: 1.06; fold changes relative to vehicle control [3]: 0.36; fold changes relative to vehicle control [4]: 0.99; fold changes relative to vehicle control [5]: 0.91; fold changes relative to vehicle control [6]: 1.03; fold changes relative to vehicle control [7]: 1.09; fold changes relative to vehicle control [8]: 1.02; fold changes relative to vehicle control [9]: 1.11; fold changes relative to vehicle control [10]: 1.26; fold changes relative to vehicle control [11]: 1.01; fold changes relative to vehicle control [12]: 0.9 |
